A short description of series [1]: Adsorption of polysorbate 80 and TnBP by the multilayer film of the 75 mL flexible bag (HPLC).
Series [2] in a line: Adsorption of Triton X-100 by the multilayer film of the 75 mL flexible bag (HPLC). The format is physicochemical. The note with it: 120 minutes. The procedure: In parallel, a negative control was carried out, repeating the experiment in a 0.5 litre glass flask filled with 316 mL of a 1% Triton X-100® solution. […] Samples were taken after 0 and 120 minutes.
The nature of series [3]: Distribution of the concentration of Triton X-100 in a 50 L bag (RP-HPLC). It counts as physicochemical. The note with it: 1% Triton X-100 in purified water.
[4] abbreviates: Bag according to the invention, 30 min, 25±3° C.
Setting [5] is: Bag according to the invention, 1 hour, 25±3° C.
[6] abbreviates: Bag according to the invention, 2 hours, 25±3° C.

For “polyethylene glycol monooleate [Polysorbate 80]”, the “adsorption by the bag” value in series [1] (75 mL flexible bag, 2 hours, 25±3° C.) is “no significant adsorption”. Moreover, the “Polysorbate 80 Concentration” value was found to be 11147 mg/L in series [1] (Bag according to the invention, 0 min, 25±3° C.); 11408 mg/L in series [1] (setting [4]); 11519 mg/L in series [1] (setting [5]); 11432 mg/L in series [1] (setting [6]); 10374 mg/L in series [1] (Glass flask (negative control), 30 min). The “Polysorbate 80 Adsorption with respect to T0” value in series [1] (setting [4]) is reported as −2.3%; in series [1] (setting [5]) it was −3.3%; in series [1] (setting [6]), −2.6%. Besides, the “concentration after 2 hours of incubation” value in series [1] (in the bag or in the glass flask) is on record as “stable”.

Consider “polyethylene glycol tert-octylphenyl ether [Triton X-100®]”, for which the “reduction of the concentration of Triton X-100” value in series [2] (0.5 litre glass flask (negative control), 1% solution, magnetic stirring) was 3.1%; in series [2] (75 mL flexible bag, 1% (w/w) solution, orbital stirring, 20±5° C.), 5%. Also, in series [2] (75 mL flexible bag, 1% (w/w) solution), the “adsorption of the Triton X-100 by the bag” value is reported as “no significant adsorption”. Further, the “greatest difference observed between the lower and higher concentrations measured” value in series [3] (0 to 120 minutes) is given as 7.90%. For the same substance, the “difference in concentration of Triton X-100 between the upper part and the bottom of the bag” value in series [3] (stirring 40 rpm) is 2.7%.

For the origin of these results see US20200032163A1, “Method for the Virus Inactivation of a Preparation of Monoclonal Antibodies” (Laboratoire Francais du Fractionnement et des …, priority 2016, published 2020).
